Data published in patent publication US7449492B2, “Therapeutic agents—I” (priority 2000, dated 2008).

Columns and labels:
[1] = target: T1, PKCβ (Homo sapiens, UniProt P05771); test: EGFP-PKC isoform translocation in HeLa cells; type: cell-based; conditions: one hour; for PKCβ translocation from the cytoplasm to the plasma membrane: TPA 100 ng/mL, bryostatin-1 5 pg/mL, PEP003 2.25 μg/mL (5 μM), PEP005 670 μg/mL (1.5 μM)
T1 construct: host or cells: HeLa cells
Description: (§1) Five EGFP-PKC isoforms (Clontech) were available for this experiment, enabling the screening of the three predominant PKC families (i.e. classical, novel and a typical PKCs). The members of the various PKC families are α, β, and γ (classical), θ (novel) and ζ (atypical).
(§2) HeLa cells were plated out in a 24-well plate containing coverslips and transfected with PKC isoforms fused to EGFP, using a commercially available effectine-transfection kit (QIAGEN, Pty. Ltd.). Cells were exposed to the transfection reagents for 16-24 hr. Subsequently, transfected cells were treated for one hour with TPA (100 ng/mL), bryostatin-1 (5 pg/mL), PEP003 (2.25 μg/mL; 5 μM) or PEP005 ([…]) 1.5 μM). Following treatment, cells were fixed on coverslips and mounted on glass slides. The slides were subsequently examined visually by fluorescence microscopy, photographed, and over 150 cells were counted/treatment/PKC isoform. Counted cells were classified according to the localisation of the PKC-EGFP fluorescence as either cytoplasmic or plasma membrane using ImagePro™ 4.1 (FIG. 5). […] The number of these cells was also counted. Results are presented as an average and standard deviation of percentages of cells (Table 1).

[2] = target: T2, PKCζ (Homo sapiens, UniProt Q05513); test: EGFP-PKC isoform translocation in HeLa cells; type: cell-based; conditions: one hour, TPA 100 ng/mL, bryostatin-1 5 pg/mL, PEP003 2.25 μg/mL (5 μM), PEP005 670 μg/mL (1.5 μM)
T2 construct: host or cells: HeLa cells
T2 sequence (Q05513 1-592): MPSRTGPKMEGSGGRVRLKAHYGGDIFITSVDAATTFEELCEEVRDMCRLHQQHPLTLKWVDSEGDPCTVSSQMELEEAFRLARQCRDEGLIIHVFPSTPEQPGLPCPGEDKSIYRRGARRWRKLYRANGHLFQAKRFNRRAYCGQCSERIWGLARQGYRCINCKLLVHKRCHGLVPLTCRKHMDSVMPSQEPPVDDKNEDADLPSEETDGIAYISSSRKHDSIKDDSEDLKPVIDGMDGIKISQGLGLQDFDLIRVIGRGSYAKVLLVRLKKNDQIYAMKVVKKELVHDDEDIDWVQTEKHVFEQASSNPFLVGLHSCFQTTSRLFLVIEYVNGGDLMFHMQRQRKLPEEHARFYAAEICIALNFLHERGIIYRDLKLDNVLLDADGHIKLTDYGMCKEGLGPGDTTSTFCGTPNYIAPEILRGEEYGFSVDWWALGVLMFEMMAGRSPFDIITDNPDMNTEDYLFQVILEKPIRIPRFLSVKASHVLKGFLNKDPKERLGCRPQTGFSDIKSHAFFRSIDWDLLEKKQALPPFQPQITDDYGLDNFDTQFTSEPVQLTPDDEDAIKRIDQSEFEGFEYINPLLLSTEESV
Description: as §1, §2

[3] = target: T3, PKCγ (Homo sapiens, UniProt P05129); test: EGFP-PKC isoform translocation in HeLa cells; type: cell-based; conditions: one hour; for PKCγ translocation from the cytoplasm to the plasma membrane: TPA 100 ng/mL, bryostatin-1 5 pg/mL, PEP003 2.25 μg/mL (5 μM), PEP005 670 μg/mL (1.5 μM)
T3 construct: host or cells: HeLa cells
Description: as §1, §2

[4] = target: T4, PKCθ (Homo sapiens, UniProt Q04759); test: EGFP-PKC isoform translocation in HeLa cells; type: cell-based; conditions: one hour, TPA 100 ng/mL, bryostatin-1 5 pg/mL, PEP003 2.25 μg/mL (5 μM)
T4 construct: host or cells: HeLa cells
T4 sequence (Q04759 whole entry, canonical isoform): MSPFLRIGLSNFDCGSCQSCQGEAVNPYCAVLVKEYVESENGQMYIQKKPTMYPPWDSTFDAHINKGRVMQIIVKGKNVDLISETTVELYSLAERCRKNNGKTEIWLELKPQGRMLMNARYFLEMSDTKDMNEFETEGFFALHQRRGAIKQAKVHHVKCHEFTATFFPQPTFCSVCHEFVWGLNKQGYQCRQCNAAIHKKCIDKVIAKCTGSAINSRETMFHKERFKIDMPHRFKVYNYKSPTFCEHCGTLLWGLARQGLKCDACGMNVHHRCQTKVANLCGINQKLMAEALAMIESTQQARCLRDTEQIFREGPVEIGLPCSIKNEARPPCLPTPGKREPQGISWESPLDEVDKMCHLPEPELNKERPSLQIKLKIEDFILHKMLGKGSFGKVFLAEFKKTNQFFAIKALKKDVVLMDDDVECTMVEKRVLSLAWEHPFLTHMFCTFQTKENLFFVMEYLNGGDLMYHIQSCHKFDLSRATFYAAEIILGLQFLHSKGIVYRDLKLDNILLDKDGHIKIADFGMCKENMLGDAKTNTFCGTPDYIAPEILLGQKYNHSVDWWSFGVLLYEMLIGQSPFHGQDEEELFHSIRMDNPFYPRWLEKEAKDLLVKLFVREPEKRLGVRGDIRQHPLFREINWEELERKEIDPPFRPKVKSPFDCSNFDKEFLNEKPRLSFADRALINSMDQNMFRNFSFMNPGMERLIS
Description: as §1, §2

[5] = tested on: peripheral blood mononuclear cells (PBMCs); test: Phagocytosis with fluorescent beads; type: cell-based; conditions: whole heparinized blood, 30 min at 37° C.
Description: Phagocytosis by peripheral blood mononuclear cells (PBMCs) was assayed (Steinkamp et al., 1982) using 1 μm Fluoresbrite™ yellow-green fluorescent latex spheres (Polysciences, Inc., Warrington, Pa.). A sample of whole, heparinized blood was treated with drug and 5×10E7 fluorescent latex beads in 10 μL of PBS added per mL of suspension. Cells were incubated and maintained in suspension for 30 min by means of a shaker platform at 37° C. The stimulated and non-stimulated samples were then lysed to isolate PBMCs. The PBMCs were run on the flow cytometer measuring FITC (excitation at 488 nm, emission at 525±20 nm), gated for fluorescence (phagocytosed spheres) and light scatter (cell size).

[6] = target: T5, PKCα (Homo sapiens, UniProt P17252); type: cell-based; conditions: HeLa, one hour; for PKCα translocation from the cytoplasm to the plasma membrane: TPA 100 ng/mL, bryostatin-1 5 pg/mL, PEP003 2.25 μg/mL (5 μM), PEP005 (1.5 μM)
T5 construct: host or cells: HeLa cells
Description: as §1
as §2, with “counted.” for “counted. Results are presented as an average and standard deviation of percentages of cells (Table 1).”

[7] = tested on: adenovirus 5; test: Adenovirus replication in human melanoma cells (immunohistochemical detection); type: cell-based; conditions: 295 ng/mL; 2 days
Excerpt: Human melanoma cells were infected with ten-fold dilutions of adenovirus 5 in culture, treated with dilutions of PEP005, PEP006, PEP008 and PEP010 and adenovirus replication determined 2 days later by immunhistochemical detection of virus-replicating cells.

[8] = tested on: CMV promoter; conditions: Christenson et al., 1999; cited from earlier work
[9] = tested on: rat brain PKC; test: PKC kinase activity, PepTag Non-Radioactive Protein Kinase Kit; type: biochemical; conditions: FIG. 1; TPA various dilutions (lanes 3, 4 and 5); ether extract at final dilution of 1 in 5 relative to the sap; crude sap and aqueous layer diluted 1/25
Description: The kinase activity of rat brain PKC (Promega) was determined using the Peptag™ Non-Radioactive Protein Kinase Kit (Promega). Using agarose gel electrophoresis the technique visualises the opposing electrostatic charge of a fluorescently labeled peptide ([sequence]) compared to the phosphorylated version of the same peptide.
The reaction mixture was separated by gel electrophoresis, showing migration of the unreacted substrate (a) to the anode (top), and the product (b), which is more negatively charged because of phosphorylation by PKC, moving towards the cathode (bottom).

[10] = tested on: latently HIV-1 infected cell line (U1); test: Activation of latent HIV from U1 cells (p24 ELISA); type: cell-based, HIV-1 LAI strain; conditions: 20 hr culture
Excerpt: A latently HIV-1 infected cell line (U1), derived from the promonocytic cell line U937 after infection with HIV-1 LAI strain, was used in these experiments. In the absence of activation, no or little virus (measured as p24 production) is produced by the U1 cell line. Phorbol esters are known to activate virus production from these cells (Tobiume et al., 1998) and so TPA/PMA was used as a positive control in these experiments.
Supernatants were collected and viral replication monitored by determination of the amounts of HIV p24 gag protein in the culture supernatants by ELISA, using a NEN Life Science HIV-1 p24 ELISA kit. p24 values were calculated from OD values using a standard curve.

[11] = tested on: latent HIV in monocytes; conditions: Tobiume et al., 1998; cited from earlier work
[12] = tested on: Burkitt's lymphoma cell lines (MutuI and BL74); test: EBV activation, VCA on western blots, Burkitt's lymphoma cell lines; type: cell-based
Description: Initially the effect of PEP003 and PEP004 was tested on the B95-8 cell line (an EBV positive marmoset cell line that is used worldwide as one of the best EBV producers). This cell line was treated with each of these compounds (at different concentrations) for 3 days and 7 days, respectively, and activation of EBV virus production was measured by the appearance of a viral capsid antigen (VCA) on western blots. Also, as a comparison, EBV was activated in this cell line with TPA.
To ensure that equal amounts of each sample were analyzed, the gels were stained with Coomassie blue and the loadings were adjusted to make them equal. […] Next the PEP003 and PEP004 were assayed on two Burkitt's lymphoma cell lines and an LCL. This time only concentrations of 10^−5 and 10^−7 were used.

[13] = tested on: phorbol ester binding site of PKC; test: [3H]-phorbol dibutyrate competition assay on rat brain homogenate; conditions: co-incubation
Description: A competition assay was performed to determine whether the diterpene esters of the instant invention bind to the phorbol ester binding site of PKC. […] This binding was not blocked by co-incubation with bisindolylmaleimide.

[14] = tested on: Peripheral blood mononuclear cells (PBMC); test: Respiratory burst, H2O2 production by DCFH-DA flow cytometry; type: cell-based; conditions: 10 μg/mL or 1 μg/mL, added at the same time as the test compounds
Description: Experiments were also carried out using 2′,7′-dichlorofluorescein diacetate (DCFH-DA) to measure the production of H2O2.(J P Robinson, Oxidative burst methods, in Handbook of Flow Cytometry Methods, Wiley-Liss Inc, pp 147-149, 1993). H2O2 oxidizes the non-fluorescent probe (DCFH-DA) to a fluorescent probe that can then be detected by a flow cytometer. Peripheral blood mononuclear cells (PBMC) were extracted from a donor blood sample by lysis of heparinized blood and used in a suspension of 1×10^6/mL of phosphate buffer, pH 7.3. The cells were then incubated, with DCFH-DA (1 μL/mL of 20 mM stock) for 15 minutes to allow it to be taken up and trapped by hydrolysis with cellular esterases. The cells were then stimulated by test compounds for 15 min at 37° C. Controls included in the experiment were unloaded control (cells with no DCFH-DA) and loaded control (cells with DCFH-DA, but no stimulation). These were used to monitor the non-specific oxidation of unstimulated cells. The cells were then analyzed on the flow cytometer (excitation at 488 nm, emission at 525±20 nm), gating each sample for individual cell populations—granulocytes, monocytes and lymphocytes (Table 3).

T1 sequence (P05771 whole entry, species assumed, canonical isoform): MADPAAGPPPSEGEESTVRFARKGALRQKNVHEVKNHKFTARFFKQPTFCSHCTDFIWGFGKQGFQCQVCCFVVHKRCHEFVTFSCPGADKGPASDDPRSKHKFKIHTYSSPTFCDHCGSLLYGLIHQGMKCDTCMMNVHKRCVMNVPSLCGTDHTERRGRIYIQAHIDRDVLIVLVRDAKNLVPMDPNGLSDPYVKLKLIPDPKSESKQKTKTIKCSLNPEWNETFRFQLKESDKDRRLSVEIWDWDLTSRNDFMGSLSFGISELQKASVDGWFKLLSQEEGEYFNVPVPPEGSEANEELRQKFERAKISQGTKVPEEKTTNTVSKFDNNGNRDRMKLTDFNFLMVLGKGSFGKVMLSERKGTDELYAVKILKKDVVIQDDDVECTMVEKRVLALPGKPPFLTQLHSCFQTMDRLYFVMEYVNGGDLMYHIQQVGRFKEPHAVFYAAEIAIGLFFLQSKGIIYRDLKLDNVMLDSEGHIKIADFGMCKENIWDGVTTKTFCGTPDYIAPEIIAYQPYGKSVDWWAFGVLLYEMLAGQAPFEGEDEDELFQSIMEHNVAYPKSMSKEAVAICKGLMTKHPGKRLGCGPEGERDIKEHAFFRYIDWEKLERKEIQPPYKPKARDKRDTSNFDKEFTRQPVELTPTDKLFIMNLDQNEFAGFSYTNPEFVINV

Row | Compound | number of PKCβ transfected cells with Golgi-like fluorescence [1] | PKCβ translocation from the cytoplasm to the plasma membrane [1] | PKCζ translocation [2] | number of PKCγ transfected cells displaying Golgi-like fluorescence [3] | PKCγ translocation from the cytoplasm to the plasma membrane [3] | PKCθ translocation [4] | phagocytosis of fluorescent latex spheres in PBMCs [5] | number of PKCα transfected cells displaying Golgi-like fluorescence [6] | PKCα translocation from the cytoplasm to the plasma membrane [6] | activation of PKC [9] | further results
1 | C/C=C(/C)C(=O)O[C@H]1C(C)=C[C@]23C(=O)[C@@H](C=C(CO)[C@@H](O)[C@]12O)[C@H]1[C@@H](C[C@H]3C)C1(C)C [PEP005, Ingenol-3-angelate] | decreases the number of cells with PKCβ concentrated in the Golgi | translocated from the cytoplasm to the plasma membrane | fail to induce translocation of PKCζ | increase in the number of cells displaying Golgi-like fluorescence | translocated from the cytoplasm to the plasma membrane | does not induce any change in the isoenzymes localization | stimulate phagocytosis | increase in the number of cells displaying Golgi-like fluorescence | translocated from the cytoplasm to the plasma membrane | – | –
2 | C/C=C(/C)C(=O)O[C@H]1C(C)=C[C@]23C(=O)[C@H](C=C(C)[C@@H](O)[C@]12O)[C@H]1[C@@H](C[C@H]3C)C1(C)C [PEP006, 20-deoxy-ingenol-3-angelate] | – | – | – | – | – | – | stimulate phagocytosis | – | – | – | increase of adenovirus replication (number of stained cells) [7]: 256%
3 | CCCCCCCCCCCCCC(=O)O[C@@H]1[C@@H](C)[C@@]2(O)[C@@H](C=C(CO)C[C@]3(O)C(=O)C(C)=C[C@@H]23)[C@@H]2C(C)(C)[C@]12OC(C)=O [TPA] | increase in Golgi-like fluorescence | translocated from the cytoplasm to the plasma membrane | fail to induce translocation of PKCζ | increase in the number of cells displaying Golgi-like fluorescence | translocated from the cytoplasm to the plasma membrane | translocated | stimulate phagocytosis | increase in the number of cells displaying Golgi-like fluorescence | translocated from the cytoplasm to the plasma membrane | showed activation of PKC | increase of CMV promoter transcriptional activity [8]: increase this activity; activation of HIV from U1 cells (p24 production) [10]: activated HIV from U1 cells; activation of latent HIV in monocytes [11]: activate latent HIV in monocytes; induction of VCA in MutuI cells [12]: did not
4 | CCC/C=C/C=C/C(=O)O[C@H]1/C(=C/C(=O)OC)C[C@H]2C[C@H]([C@@H](C)O)OC(=O)C[C@H](O)C[C@@H]3C[C@H](OC(C)=O)C(C)(C)[C@](O)(C[C@@H]4C/C(=C/C(=O)OC)C[C@H](/C=C/C(C)(C)[C@]1(O)O2)O4)O3 [bryostatin-1] | decreases the number of cells with PKCβ concentrated in the Golgi | not with bryostatin-1 | fail to induce translocation of PKCζ | – | – | translocated | – | – | not with bryostatin-1 | – | –
5 | bisindolylmaleimide | – | – | – | – | – | – | – | – | – | – | binds to the phorbol ester binding site of PKC [13]: does not; effect of PKC inhibitor on the respiratory burst seen with TPA and PEP003 [14]: blocked the respiratory burst
6 | phosphatidyl serine | – | – | – | – | – | – | – | – | – | strong activation | –
